“Also recorded” adds a separate entry of the source.
How the values were obtained:
GMC101 worms [1] = experiment: Transcript analysis of the MSR and other stress pathways in GMC101 worms; format: in vivo, C. elegans; settings: for UPR^er and HSR gene transcripts: AZD 0.3 μM; for MSR transcripts (UPR^mt, mitophagy and respiration genes): AZD 300 nM
Protocol: C. elegans: A total of ˜3000 worms per condition, divided in 3 biological replicates, was recovered in M9 buffer from NGM plates and lysed in the TriPure RNA reagent. Each experiment was repeated twice. Total RNA was transcribed to cDNA using QuantiTect Reverse Transcription Kit (Qiagen). Expression of selected genes was analyzed using the LightCycler480 system (Roche) and LightCycler® 480 SYBR Green I Master reagent (Roche). For C. elegans, 2 housekeeping genes were used to normalize the expression data, namely actin (act-1) and peroxisomal membrane protein 3 (pmp-3).
atfs-1p::atfs-1 expression vector was created by amplifying 1488 bp sequence upstream from the transcription start site of atfs-1 coding region by using worm genomic DNA for the promoter region. The PCR product was digested with PciI and AgeI and ligated into the pPD30.38 expression vector containing gfp coding sequence cloned between inserted AgeI and NotI restriction sites. The atfs-1 coding sequence (CDS) was instead amplified using C. elegans cDNA, and the PCR product was inserted into pPD30.38 downstream of the promoter region, between AgeI and NheI restriction sites. The correctness of the atfs-1p::atfs-1 construct was assessed by sequencing with the indicated pPD30.38 and atfs-1 seq. primers. Two independent GMC101 lines (AUW9 and AUW10), and one CL2122 strain (AUW11) carrying atfs-1p::atfs-1 transgene as extrachromosomal array were analyzed in the study. Injection marker myo-2p::gfp was cloned by amplifying 1179 bp sequence upstream from the transcription start site of myo-2 coding region by using C. elegans genomic DNA. The PCR product was digested with PciI and AgeI and ligated into the pPD30.38 expression vector containing atfs-1::gfp to replace atfs-1 promoter sequence between PciI and AgeI restriction sites. All transgenic strains were created by using microinjection. For the generation of the GMC101 lines AUW12 and AUW13, GMC101 males were generated after exposure of L4 worms to 30° C. for 3 h, and let mate with L4 from clk-1 or nuo-6 mutant strains. The derived progeny was selected for homozygosis of the GMC101 intestinal GFP marker for few generations, and the homozygosis of the clk-1 or nuo-6 mutant alleles verified by amplifying and sequencing a 500 bp region of the worms genomic DNA encompassing the desired mutation. Bacterial feeding RNAi experiments were carried out as described. Clones used were atfs-1 (ZC376.7), ubl-5 (F46F11.4), mrps-5 (E02A10.1), dct-1 (C14F5.1), daf-16 (R13H8.1), sir-2.1 (R11A8.4), xbp-1 (R74.3) and hsf-1 (Y53C10A.12). Clones were purchased from GeneService and verified by sequencing. The novel atfs-1 RNAi construct (atfs-1 #2) used in this study was generated by amplifying 1400 bp of the atfs-1 genomic DNA sequence, starting from the last exon of atfs-1. Gateway cloning (Thermo Scientfic) was used to insert the PCR product into the gateway vector pL4440gtwy (Addgene #11344), and verified by sequencing. atfs-1 knockdown was verified by qPCR for all the atfs-1 RNAi constructs used herein. For phenotypic studies (see below), worms at the L4 larval stage were allowed to reach adulthood and lay eggs on the treatment plates. The deriving F1 worms were shifted from 20° C. to 25° C. at the L4 stage to induce amyloid accumulation and paralysis, and phenotypes assessed over time as indicated. For double RNAi experiments, we used a combination of atfs-1 with mrps-5 RNAi constructs as indicated in the text, with 80% amount of atfs-1 and 20% mrps-5 RNAi. For mRNA analysis, synchronized L1 worms were exposed to the treatment plates, and shifted from 20° C. to 25° C. when reaching the L4 stage. After 24 hours incubation at 25° C., corresponding to day 1 of adulthood, they were harvested in M9 for analysis.
Doxycycline was obtained from Sigma-Aldrich and dissolved in water. For experiments, a final concentration of 15 μg/mL was used. Olaparib (AZD2281) was dissolved in DMSO to experimental concentrations of 300 nM. […]

GMC101 worms [2] = experiment: Worm phenotypic assays in GMC101: mobility, paralysis and death score; format: in vivo, C. elegans; settings: for fitness/healthspan and lifespan (mobility, paralysis, death): GMC101, mobility from day 1 of adulthood, paralysis and death at day 8, dox 15 μg/mL, AZD 300 nM
Protocol: Doxycycline was obtained from Sigma-Aldrich and dissolved in water. For experiments, a final concentration of 15 μg/mL was used. Olaparib (AZD2281) was dissolved in DMSO to experimental concentrations of 300 nM. Nicotinamide Riboside triflate (NR) was custom synthesized by Novalix (www.novalix-pharma.com/) and dissolved in water, and used at a final concentration of 1 mM. Compounds were added just before pouring the plates. For phenotyping experiments, parental F0 L4 worms were allowed to reach adulthood and lay eggs on the treatment plates. The deriving F1 worms were therefore exposed to compounds during the full life from eggs until death. For RNA analysis experiments, synchronized L1 worms were exposed to the compounds until harvest. To ensure a permanent exposure to the compound, plates were changed twice a week.
Mobility: C. elegans movement analysis was performed as described, starting from day 1 of adulthood, using the Movement Tracker software. The experiments were repeated at least twice.
Paralysis and death score: 5 L4 worms per condition were allowed to reach adulthood and lay eggs on the treatment plates. 45 to 60 deriving F1 worms per condition were manually scored for paralysis after poking, as already described. Worms that were unable to respond to any, repeated stimulation, were scored as dead. Results are representative of the data obtained in at least three independent experiments.
During the assays, animals were exposed to Myriocin (dissolved in DMSO) from the egg stage on plates seeded with live HT115 E. coli bacteria. Control plates seeded with the same bacteria were prepared with the corresponding concentrations of DMSO. The day of the experiment (day 1 of adulthood, 3 days after hatching), the GMC101 population was shifted to 25° C. in order to induce the amyloid deposition in the body wall muscle. ˜1000 worms were used for western blotting assays.
C. elegans movement analysis was performed as described (Mouchiroud et al., 2016), using the Movement Tracker software. ˜50 adult worms were used per condition for movement assays.
To score for paralysis and death, 50 worms per condition were manually scored after poking as described (McCool et al., 2012; Florez-McClure et al., 2007). Worms that were unable to respond to repeated stimulation were scored as dead.
During the assays, animals were exposed to the compound UA from egg stage on plates seeded with live HT115 E. coli bacteria. Control plates seeded with the same bacteria were prepared with the corresponding concentrations of DMSO (0.1%). The day of the experiment (day 1 of adulthood, 3 days after hatching), the GMC101 population was shifted to 25° C. in order to induce the amyloid deposition in the body wall muscle. ˜50 adult worms were used per conditions.
C. elegans movement analysis was performed as described in (Mouchiroud et al., 2016), using the Movement Tracker software within a period of 4 days.

[3] = GMC101, day 1 of adulthood, dox 15 μg/mL, NR 1 mM

O=C(c1cc(Cc2n[nH]c(=O)c3ccccc23)ccc1F)N1CCN(C(=O)C2CC2)CC1 [AZD, Olaparib, reference compound]
UPR^er and HSR gene transcripts (GMC101 worms [1]; [3]): only a minimal impact | MSR transcripts (UPR^mt, mitophagy and respiration genes) (GMC101 worms [1]; [3]): induced the MSR | fitness/healthspan and lifespan (mobility, paralysis, death) (GMC101 worms [2]; NR 1 mM): improved healthspan and lifespan

CCCCCCC(=O)CCCCCC/C=C/C[C@@H](O)[C@H](O)[C@@](N)(CO)C(=O)O [Myriocin, (E,2S,3R,4R)-2-amino-3,4-dihydroxy-2-(hydroxymethyl)-14-oxoicos-6-enoic acid]
oxidative stress and mitochondrial stress response genes (sod-2, sod-4, atfs-1, skn-1) (GMC101 worms [1]; GMC101, myriocin 5 uM and 10 uM): induction | UPR^mt and mitophagy genes (hsp-6, hsp-60, dct-1, pdr-1) (GMC101 worms [1]; GMC101, myriocin treatment): upregulation | paralysis and death (survival) (GMC101 worms [2]; GMC101, day 4 of adulthood, Myriocin 10 uM): decreased both paralysis and death; also recorded: improves the paralysis score and survival | spontaneous movement (mobility) (GMC101 worms [2]; GMC101, period of 4 days, Myriocin 10 uM): increased the mobility; also recorded: increase in spontaneous movement

NC(=O)c1ccc[n+]([C@@H]2O[C@H](CO)[C@@H](O)[C@H]2O)c1 [NR, Nicotinamide Riboside triflate]
daf-16 and daf-16 target gene transcripts (GMC101 worms [1]; [3]): did not affect | UPR^er and HSR gene transcripts (GMC101 worms [1]; [3]): only a minimal impact | MSR transcripts (UPR^mt, mitophagy and respiration genes) (GMC101 worms [1]; [3]): induced the MSR | fitness/healthspan and lifespan (mobility, paralysis, death) (GMC101 worms [2]; NR 1 mM): improved healthspan and lifespan | health- and life-span upon sir-2.1 RNAi (GMC101 worms [2]; GMC101 fed with sir-2.1 RNAi, NR 1 mM): still significantly rescued health- and life-span | dependence of motility and Aβ clearance benefits on atfs-1 (GMC101 worms [2]; GMC101 upon atfs-1 RNAi feeding): required | dependence of health-, lifespan and proteostasis benefits on dct-1 (GMC101 worms [2]; GMC101 upon dct-1 RNAi feeding): required

From patent publication US20220110902A1, “Methods of treating amyloid-beta peptide diseases” (Ecole Polytechnique Federale de Lausanne, priority 2016, published 2022)
